Experimental data as given in article PMC7423715 (International journal of pharmaceutics, 2020).
Structures can show the parent of a compound that is named as a salt. Bridge positions count the residues as written; N and C are the ends. Square brackets hold non-standard residues; d marks the D form. Peptide text beside a SMILES is read from it. * marks the point of attachment. X1 = CC[C@H](C)CCCCC(=O)*; Dab = NCC[C@H](N)C(=O)O

Test system: Calu-3 cell monolayer
Experiment: Transepithelial transport across the Calu-3 cell monolayer
Settings: colistin transport, Calu-3 monolayer, HBSS, 4 hours, LC-MS/MS, n = 4, Fig. 6C

Structure (SMILES): CC[C@H](C)CCCCC(=O)N[C@@H](CCN)C(=O)N[C@H](C(=O)N[C@@H](CCN)C(=O)N[C@H]1CCNC(=O)[C@H]([C@@H](C)O)NC(=O)[C@H](CCN)NC(=O)[C@H](CCN)NC(=O)[C@H](CC(C)C)NC(=O)[C@@H](CC(C)C)NC(=O)[C@H](CCN)NC1=O)[C@@H](C)O [colistin, colistin sulfate] (X1-[Dab]T[Dab][Dab][Dab][dL]L[Dab][Dab]T; lactam 4-C)
- drug retained in the donor compartment: more than 90%
